Test results from US12011444B2, “N-substituted indole derivatives as PGE2 receptor modulators” (Idorsia Pharmaceuticals Ltd, priority 2015, dated 2024).

Tests used:
[1] = molecular target: PTRGER4 (EP4) (Homo sapiens (Human), UniProt P35408); experiment: hEP4 b-arrestin assay (PathHunter HEK 293 PTGER4 b-arrestin cells); format: cell-based; details: hEP4 b-arrestin assay (values without asterisk)
Method in brief: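 Stably transfected HEK293 cells carrying EP4–ProLink and β-arrestin 2–EA (β-gal fragment complementation), pre-incubated with compound 15 min at 37 °C, then stimulated with PGE2 (20 nM final) for 120 min at 37 °C. Chemiluminescence read after 1 h detection reagent at room temperature; activity per concentration expressed as percent of DMSO control.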

[2] = molecular target: PTGER2 (EP2) (Homo sapiens (Human), UniProt P43116); experiment: hEP2 b-arrestin assay (PathHunter HEK 293 PTGER2 b-arrestin cells); format: cell-based; details: hEP2 b-arrestin assay (values without asterisk)
PTGER2 (EP2), sequence (P43116 whole entry, the tested form may be a part): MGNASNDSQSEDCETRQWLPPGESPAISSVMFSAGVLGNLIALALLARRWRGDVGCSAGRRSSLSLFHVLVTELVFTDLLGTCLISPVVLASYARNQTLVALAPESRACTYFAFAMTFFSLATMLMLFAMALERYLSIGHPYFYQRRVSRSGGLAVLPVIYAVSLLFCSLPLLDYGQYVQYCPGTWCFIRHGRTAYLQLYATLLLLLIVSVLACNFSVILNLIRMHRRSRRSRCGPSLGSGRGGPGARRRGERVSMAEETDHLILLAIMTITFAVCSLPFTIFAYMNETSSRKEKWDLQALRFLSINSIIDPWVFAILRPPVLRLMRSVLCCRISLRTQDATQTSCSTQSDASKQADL
Method in brief: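 HEK293 cells expressing ProLink-tagged EP2 and EA-fused β-arrestin 2 (enzyme fragment complementation) were seeded 24 h, pre-incubated with compound 15 min at 37 °C, then stimulated with 5 μM PGE2 (final) for 120 min.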

PTRGER4 (EP4), sequence (P35408 whole entry, looked up, the tested form may be a part): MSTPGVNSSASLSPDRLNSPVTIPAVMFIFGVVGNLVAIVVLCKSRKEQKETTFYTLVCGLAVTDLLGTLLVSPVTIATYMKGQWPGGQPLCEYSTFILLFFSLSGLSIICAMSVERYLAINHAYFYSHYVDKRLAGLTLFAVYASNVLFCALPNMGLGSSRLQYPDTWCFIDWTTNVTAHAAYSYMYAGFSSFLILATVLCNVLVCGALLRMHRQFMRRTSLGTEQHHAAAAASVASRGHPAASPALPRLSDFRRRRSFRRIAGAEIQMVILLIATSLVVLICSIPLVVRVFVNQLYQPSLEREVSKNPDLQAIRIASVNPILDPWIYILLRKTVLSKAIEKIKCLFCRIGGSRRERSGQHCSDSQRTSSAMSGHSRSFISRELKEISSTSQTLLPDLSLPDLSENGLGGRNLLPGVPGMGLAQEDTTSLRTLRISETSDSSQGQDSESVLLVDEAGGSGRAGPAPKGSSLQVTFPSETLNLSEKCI

Row | IC50 [1] | IC50 [2] | SMILES
1 | 27 nM | 31 nM | COc1ccc(F)c2c1cc(C#N)n2CCNc1cc(-c2ccc3c(c2)CNC(=O)N3)ncn1 [Example 970, 7-Fluoro-4-methoxy-1-{2-[6-(2-oxo-1,2,3,4-tetrahydro-quinazolin-6-yl)-pyrimidin-4-ylamino]-ethyl)-1H-indole-2-carbonitrile]
2 | 24 nM | 39 nM | COc1ccc(F)c2c1cc(C#N)n2CCNc1cc(-c2ccc(NC=O)cc2)ncn1 [Example 971, N-(4-{6-[2-(2-Cyano-7-fluoro-4-methoxy-indol-1-yl)-ethylamino]-pyrimidin-4-yl}-phenyl)-formamide]
3 | 18 nM | 6 nM | COc1ccc(F)c2c1cc(C#N)n2CCNc1cc(-c2ccc3[nH]c(=O)oc3c2)ncn1 [Example 972, 7-Fluoro-4-methoxy-1-{2-[6-(2-oxo-2,3-dihydro-benzooxazol-6-yl)-pyrimidin-4-ylamino]-ethyl}-1H-indole-2-carbonitrile]
4 | 49 nM | 15 nM | COc1ccc(F)c2c1cc(C#N)n2CCNc1cc(-c2ccc3oc(=O)n(C)c3c2)ncn1 [Example 973, 7-Fluoro-4-methoxy-1-{2-[6-(3-methyl-2-oxo-2,3-dihydro-benzooxazol-5-yl)-pyrimidin-4-ylamino]-ethyl}-1H-indole-2-carbonitrile]
5 | 84 nM | 36 nM | COc1ccc(F)c2c1cc(C#N)n2CCNc1cc(-c2ccc(C(=O)O)cc2)ncn1 [Example 974, 4-{6-[2-(2-Cyano-7-fluoro-4-methoxy-indol-1-yl)-ethylamino]-pyrimidin-4-yl}-benzoic acid]
6 | 6 nM | 5 nM | COc1ccc(F)c2c1cc(C#N)n2CCNc1cc(-c2ccc3[nH]ncc3c2)ncn1 [Example 977, 7-Fluoro-1-{2-[6-(1H-indazol-5-yl)-pyrimidin-4-ylamino]-ethyl}-4-methoxy-1H-indole-2-carbonitrile]
7 | 15 nM | 4 nM | COc1ccc(F)c2c1cc(C#N)n2CCNc1cc(-c2cnc3[nH]ccc3c2)ncn1 [Example 979, 7-Fluoro-4-methoxy-1-{2-[6-(1H-pyrrolo[2,3-b]pyridin-5-yl)-pyrimidin-4-ylamino]-ethyl}-1H-indole-2-carbonitrile]
8 | 12 nM | 21 nM | COc1ccc(F)c2c1cc(C#N)n2CCNc1cc(-c2cnc3c(ccn3C)c2)ncn1 [Example 980, 7-Fluoro-4-methoxy-1-{2-[6-(1-methyl-1H-pyrrolo[2,3-b]pyridin-5-yl)-pyrimidin-4-ylamino]-ethyl}-1H-indole-2-carbonitrile]
9 | 3 nM | 18 nM | CCNC(=O)Nc1ccc(-c2cc(NCCn3c(C#N)cc4c(OC)ccc(F)c43)ncn2)cc1OC [Example 982, 1-(4-{6-[2-(2-Cyano-7-fluoro-4-methoxy-indol-1-yl)-ethylamino]-pyrimidin-4-yl}-2-methoxy-phenyl)-3-ethyl-urea]
10 | 28 nM | 8 nM | COc1ccc(F)c2c1cc(C#N)n2CCNc1cc(-c2ccc3[nH]cnc3c2)ncn1 [Example 984, 1-{2-[6-(1H-Benzoimidazol-5-yl)-pyrimidin-4-ylamino]-ethyl}-7-fluoro-4-methoxy-1H-indole-2-carbonitrile]
11 | 14 nM | 25 nM | COc1ccc(F)c2c1cc(C#N)n2CCNc1cc(-c2ccc3nn[nH]c3c2)ncn1 [Example 985, 1-{2-[6-(3H-Benzotriazol-5-yl)-pyrimidin-4-ylamino]-ethyl}-7-fluoro-4-methoxy-1H-indole-2-carbonitrile]
12 | 66 nM | 9 nM | COc1ccc(F)c2c1cc(C#N)n2CCNc1cc(-c2ccnc(C3CC3)c2)ncn1 [Example 986, 1-{2-[6-(2-Cyclopropyl-pyridin-4-yl)-pyrimidin-4-ylamino]-ethyl}-7-fluoro-4-methoxy-1H-indole-2-carbonitrile]
13 | 67 nM | 44 nM | COc1ccc(F)c2c1cc(C#N)n2CCNc1cc(-c2ccc3[nH]c(=O)[nH]c3c2)ncn1 [Example 987, 7-Fluoro-1-{2-[6-(2-oxo-2,3-dihydro-1H-benzo[d]imidazol-5-yl)-pyrimidin-4-ylamino]-ethyl}-4-methoxy-1H-indole-2-carbonitrile]
14 | 197 nM | 51 nM | COc1ccc(F)c2c1cc(C#N)n2CCNc1cc(-c2ccnc(N)c2)ncn1 [Example 988, 1-{2-[6-(2-Amino-pyridin-4-yl)-pyrimidin-4-ylamino]-ethyl}-7-fluoro-4-methoxy-1H-indole-2-carbonitrile]
15 | 62 nM | 67 nM | COc1ccc(F)c2c1cc(C#N)n2CCNc1cc(-c2ccc(B(O)O)cc2)ncn1 [Example 989, (4-(6-((2-(2-Cyano-7-fluoro-4-methoxy-1H-indol-1-yl)ethyl)amino)pyrimidin-4-yl)phenyl)boronic acid]
16 | 19 nM | 3 nM | COc1ccc(F)c2c1cc(C#N)n2CCNc1cc(-c2ccc3c(c2)CCNC3=O)ncn1 [Example 990, 7-Fluoro-4-methoxy-1-{2-[6-(1-oxo-1,2,3,4-tetrahydro-isoquinolin-6-yl)-pyrimidin-4-ylamino]-ethyl}-1H-indole-2-carbonitrile]
17 | 35 nM | 27 nM | CCOc1cc(-c2cc(NCCn3c(C#N)cc4c(OC)ccc(F)c43)ncn2)ccc1C=O [Example 992, 1-{2-[6-(3-Ethoxy-4-formyl-phenyl)-pyrimidin-4-ylamino]-ethyl}-7-fluoro-4-methoxy-1H-indole-2-carbonitrile]
18 | 6 nM | 7 nM | COc1ccc(F)c2c1cc(C#N)n2CCNc1cc(-c2ccc3[nH]ccc3c2)ncn1 [Example 994, 7-Fluoro-1-{2-[6-(1H-indol-5-yl)-pyrimidin-4-ylamino]-ethyl}-4-methoxy-1H-indole-2-carbonitrile]

Further lines, the molecule ahead of its results:

Row | SMILES | IC50 [1] | IC50 [2]
19 | COc1ccc(F)c2c1cc(C#N)n2CCNc1cc(-c2c[nH]c3ccccc23)ncn1 [Example 968, 7-Fluoro-1-{2-[6-(1H-indol-3-yl)-pyrimidin-4-ylamino]-ethyl)-4-methoxy-1H-indole-2-carbonitrile] | 15 nM | 4 nM
20 | COc1ccc(F)c2c1cc(C#N)n2CCNc1cc(-c2cccc3[nH]ccc23)ncn1 [Example 969, 7-Fluoro-1-{2-[6-(1H-indol-4-yl)-pyrimidin-4-ylamino]-ethyl)-4-methoxy-1H-indole-2-carbonitrile] | 25 nM | 56 nM
21 | COc1ccc(F)c2c1cc(C#N)n2CCNc1cc(-c2ccnc(N3CCC3)c2)ncn1 [Example 975, 1-{2-[6-(2-Azetidin-1-yl-pyridin-4-yl)-pyrimidin-4-ylamino]-ethyl}-7-fluoro-4-methoxy-1H-indole-2-carbonitrile] | 55 nM | 44 nM
22 | COc1ccc(F)c2c1cc(C#N)n2CCNc1cc(-c2ccnc(N3CCCCC3)c2)ncn1 [Example 976, 7-Fluoro-4-methoxy-1-{2-[6-(3,4,5,6-tetrahydro-2H-[1,2′]bipyridinyl-4′-yl)-pyrimidin-4-ylamino]-ethyl}-1H-indole-2-carbonitrile] | 317 nM | 194 nM
23 | COc1ccc(F)c2c1cc(C#N)n2CCNc1cc(-c2c[nH]c3ncccc23)ncn1 [Example 978, 7-Fluoro-4-methoxy-1-{2-[6-(1H-pyrrolo[2,3-b]pyridin-3-yl)-pyrimidin-4-ylamino]-ethyl}-1H-indole-2-carbonitrile] | 16 nM | 1 nM
24 | COc1cc2[nH]ncc2cc1-c1cc(NCCn2c(C#N)cc3c(OC)ccc(F)c32)ncn1 [Example 981, 7-Fluoro-4-methoxy-1-{2-[6-(6-methoxy-1H-indazol-5-yl)-pyrimidin-4-ylamino]-ethyl}-1H-indole-2-carbonitrile] | 58 nM | 59 nM
25 | COc1ccc(F)c2c1cc(C#N)n2CCNc1cc(-c2ccc(CNS(C)(=O)=O)cc2)ncn1 [Example 983, N-(4-{6-[2-(2-Cyano-7-fluoro-4-methoxy-indol-1-yl)-ethylamino]-pyrimidin-4-yl}-benzyl)-methanesulfonamide] | 244 nM | 248 nM
26 | COc1ncc(-c2cc(NCCn3c(C#N)cc4c(OC)ccc(F)c43)ncn2)cn1 [Example 991, 7-Fluoro-4-methoxy-1-[2-(2′-methoxy-[4,5]bipyrimidinyl-6-ylamino)-ethyl]-1H-indole-2-carbonitrile] | 540 nM | 142 nM
27 | COc1ccc(F)c2c1cc(C#N)n2CCNc1cc(-c2c(C)noc2C)ncn1 [Example 993, 1-{2-[6-(3,5-Dimethyl-isoxazol-4-yl)-pyrimidin-4-ylamino]-ethyl}-7-fluoro-4-methoxy-1H-indole-2-carbonitrile] | 344 nM | 80 nM
28 | COc1ccc(F)c2c1cc(C#N)n2CCNc1cc(-c2ccc3nccn3c2)ncn1 [Example 995, 7-Fluoro-1-[2-(6-imidazo[1,2-a]pyridin-6-yl-pyrimidin-4-ylamino)-ethyl]-4-methoxy-1H-indole-2-carbonitrile] | 52 nM | 13 nM
29 | COCCNC(=O)c1ccc(-c2cc(NCCn3c(C#N)cc4c(OC)ccc(F)c43)ncn2)cc1 [Example 996, 4-{6-[2-(2-Cyano-7-fluoro-4-methoxy-indol-1-yl)-ethylamino]-pyrimidin-4-yl}-N-(2-methoxy-ethyl)-benzamide] | 99 nM | 39 nM
30 | COc1ccc(F)c2c1cc(C#N)n2CCNc1cc(-c2ccnc(N3CCCC3)c2)ncn1 [Example 997, 7-Fluoro-4-methoxy-1-{2-[6-(2-pyrrolidin-1-yl-pyridin-4-yl)-pyrimidin-4-ylamino]-ethyl}-1H-indole-2-carbonitrile] | 143 nM | 58 nM
